The target in test [1] is T1, Human Dcp2 (Homo sapiens, UniProt Q8IU60).
T1 construct: made in house; host or cells: E. coli
The test is described as follows: RNA decapping assay with recombinant hDcp2. As to conditions: fraction of decapped RNA after 30 min of incubation with hDcp2, 27-nt RNA capped with the analog, 37 °C; triplicates ± SD. It counts as biochemical. As to the method: Human Dcp2 was expressed in E. coli and purified as described previously ([52]). Short 27 nt-capped RNAs (24.2 ng) were diluted with decapping buffer (50 mM Tris–HCl pH 8.0, 50 mM NH4Cl, 0.01% NP-40, 1 mM DTT, 5 mM MgCl2 and 2 mM MnCl2; 2.9 μl of freshly prepared 10 × Buffer) and the final volume was adjusted to 29 μl with ultrapure RNase free water. 4.2 ng (5 μl) of the solution was taken out as time zero reference and diluted with 5 μl loading dye (5 M urea, 44% formamide, 20 mM EDTA, 0.03% bromophenol blue, 0.03% xylene cyanol). The remaining RNAs (20 ng/24 μl) were subjected to 10 nM hDcp2 (250 nM, 1 μl) and the mixtures were incubated at 37°C for 1 h. At defined time points (5, 15, 30 and 60 min), 4 ng of RNA (5 μl) were taken out and the reactions were quenched by adding an equal volume of loading dye. RNAs were resolved electrophoretically on denaturing 15% acrylamide:bisacrylamide 19:1/7 M urea/1 × TBE gel, stained with SYBR Gold (Invitrogen) and visualized using a Typhoon FLA 9500 (GE Healthcare). The decapping progress was determined for each time point by densitometry analysis of the gels, as a ratio between the intensity of the band corresponding to capped RNA and the sum of the intensity of bands from capped and uncapped RNAs. The percentages of remaining capped RNA were then plotted as a function of time.
The RNAs used to determine the capping efficiencies were also useful to study the susceptibility of capped RNA to decapping by hDcp2, the catalytic subunit of the major human mRNA decapping complex Dcp1/Dcp2, which releases m^7GDP and 5′-monophosphorylated RNA (in this case the 26-nt pApG-RNA24; Figure 4C). The progress of decapping at different time points (5, 15, 30 and 60 min) was monitored by HR-PAGE followed by densitometric analysis of the gels (Figure 4C, triplicates of gels are shown in Supplementary Figure S2), and the fraction of remaining capped RNA (27-nt) was plotted as a function of time (Figure 4D-G). […] For better visualization, the data of modified capped RNAs were grouped according to the type of modification present at the 5′ end and presented in separate graphs (Figure 4E–G). To quantify the relative susceptibility to hDcp2, we compared the decapping levels at the 30 min time point (Table 1). For RNAs capped with β-S-triphosphate analogs (1–6, Figure 4E, Table 1), we observed a significant difference in susceptibility to hDcp2 between RP and SP isomers, independent of the methylation pattern.

In test [2] the target is T2, human eIF4E1a (Homo sapiens, UniProt P06730).
T2 construct: made in house; host or cells: E. coli Rosetta 2 (DE3)pLysS
As to the kind of experiment: Fluorescence quenching titration (FQT) binding assay with eIF4E. As to the method: The human eIF4E1a protein was expressed without affinity tag in E. coli Rosseta 2 (DE3)pLysS strain (Novagen) under conditions leading to accumulation of the produced protein in inclusion bodies ([48]). The protein was extracted from inclusion bodies with buffer containing 6 M guanidine hydrochloride, refolded by one-step dialysis against 50 mM HEPES/KOH (pH 7.2), 100 mM KCl, 0.5 mM EDTA, 2 mM DTT, and purified by ion exchange chromatography on HiTrap SP HP 5 ml column (GE Healthcare) using salts gradient. Finally, protein was filtered using Ultrafree MC-HV Centrifugal PVDF filters with 0.45 μm membrane pore (Millipore) to remove protein aggregates and its concentration was determined spectrophotometrically assuming the theoretical extinction coefficient ϵ280nm = 52 940 L mol^−1cm^−1—calculated from amino acid composition using algorithm on ExPASy Server.
Fluorescence titration measurements were carried out on a LS-55 spectrofluorometer (Perkin Elmer Co., Norwalk, CT, USA) in a quartz semi-micro cuvette (Hellma, Germany) with optical lengths 4 mm and 10 mm for absorption and emission, respectively, which was thermostated at 20.0 ± 0.2 °C. The titrations were performed in 50 mM Hepes/KOH pH 7.2, 100 mM KCl, 0.5 mM EDTA and 1 mM DTT by adding 1 μl aliquots of increasing concentrations of the cap solutions to 1.4 ml of 0.1 μM eIF4E1a solution. The eIF4E1a fluorescence was excited at 280 nm and the fluorescence intensity was monitored at a single wavelength 340 nm. The measured fluorescence intensities were corrected for dilution (<4%) and for the inner filter effect. Association equilibrium constants (Kas) were obtained by fitting the theoretical curve for fluorescence intensity (F) upon total concentration of cap analogs ([L]) to the titration data according to the equation: […]
with the concentration of the cap analogs–eIF4E1a complex [cx] given by:
where Δϕ stands for the difference between the fluorescence efficiencies of the apo- and cap analog bound proteins; ϕlig-free is the fluorescence efficiency of the free cap analog; F(0) is the initial fluorescence, and Pact is the total concentration of the active protein ([49]). The final KAS values were calculated as a weighted average from three independent titrations and represented as the KD values. Numerical least-squares nonlinear regression analysis was performed using ORIGIN 2021 from Microcal Software Inc., USA.
Recognition of the mRNA 5′ cap by translation initiation factor 4E (eIF4E) is considered to be the rate-limiting step for the entire translation process ([63],[64]), therefore we investigated the affinity of novel trinucleotide cap analogs to the canonical human eIF4E1a protein by fluorescence quenching titration (FQT; Table 1 column 1, Figure 3) ([65]). As a reference, we determined the dissociation constant between heIF4E1a and the trinucleotide cap-1 structure m^7GpppAmpG, which was equal to 42 nM and very close to the analogous value previously determined for mouse Δ27NeIF4E (46 nM) ([12]). In the case of all modifications tested, the KD values for cap-heIF4E1a complexes are consistent with the results previously obtained for dinucleotide counterparts and murine eIF4E protein, although the magnitude of the modification effect is generally lower. The most tightly bound tetraphosphate analogs (compounds 10–12) show KD values of 6–7 nM, which means that their affinity is about 6-fold higher compared to the triphosphate counterparts. The affinities decrease upon CH2 or CCl2 modification of the tetraphosphate bridge (compounds 13–16), but they are still 4–5 times higher than for the triphosphate analogs with the same adenosine methylation pattern.

T2 sequence (P06730 whole entry): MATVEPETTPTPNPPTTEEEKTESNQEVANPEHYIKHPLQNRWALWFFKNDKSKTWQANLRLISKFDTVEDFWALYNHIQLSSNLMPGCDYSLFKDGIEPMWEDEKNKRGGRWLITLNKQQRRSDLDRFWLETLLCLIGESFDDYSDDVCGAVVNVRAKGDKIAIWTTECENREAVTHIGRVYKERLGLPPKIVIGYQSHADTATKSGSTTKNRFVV

The Kd is the constant that tells how readily two partners part at equilibrium. Consider `CO[C@@H]1[C@H](OP(=O)(O)OC[C@H]2O[C@@H](n3cnc4c(=O)[nH]c(N)nc43)[C@H](O)[C@@H]2O)[C@@H](CSP(=O)([O-])OP(=O)(O)OP(=O)(O)OC[C@H]2O[C@@H](n3c[n+](C)c4c(O)nc(N)nc43)[C@H](O)[C@@H]2O)O[C@H]1n1cnc2c(N)ncnc21` [Compound 8, m^7Gppp^5’SAmpG], for which, in test [1], the “Susceptibility to hDcp2 (@30 min)” value is 0.64 ± 0.11. Also, the “effect of modification on binding affinity for heIF4E1a (in words)” value in test [2] (compared to corresponding triphosphates) was “virtually no effect on binding affinity”. In addition, in test [2] (fluorescence quenching titration, 20 °C, pH 7.2, average of triplicates ± SD, read-out: heIF4E1a KD), the dissociation constant Kd is 48.7 ± 1.2 nM.
